Experimental data from ChEMBL document CHEMBL1122533 (J Med Chem, 1984).
Peptide text beside a SMILES is read from it. * marks the point of attachment. Cbz = O=C(OCc1ccccc1)*; Boc = CC(C)(C)OC(=O)*

Key:
Rattus norvegicus [1] = experiment: Compound was tested for the in vivo antagonist activity calculated from ED50 value, by estimating at 25 mL the mean blood volume in a 300-g rat and expressed as molarity; type: functional
Rattus norvegicus [2] = experiment: In vivo antagonistic effect on gastric acid secretion in the perfused rat stomach; type: functional

CSCC[C@H](NC(=O)[C@H](Cc1c[nH]c2ccccc12)NC(=O)OC(C)(C)C)C(=O)N[C@@H](CC(=O)O)C(N)=O (Boc-Trp-Met-Asp-NH2)
Activity (Rattus norvegicus [1]): 0.00016 | ED50 (Rattus norvegicus [2]): 7.5 mg/kg

CSCC[C@H](NC(=O)[C@H](Cc1c[nH]c2ccccc12)NC(=O)CNC(=O)[C@H](Cc1ccc(O)cc1)NC(=O)[C@H](C)NC(=O)[C@H](CCC(=O)O)NC(=O)OCc1ccccc1)C(=O)N[C@@H](CC(=O)O)C(N)=O (Cbz-EAYGWMD-NH2)
Activity (Rattus norvegicus [1]): 1.8e-05 | ED50 (Rattus norvegicus [2]): 1.5 mg/kg

CSCC[C@H](NC(=O)[C@H](Cc1c[nH]c2ccccc12)NC(=O)CNC(=O)OC(C)(C)C)C(=O)N[C@@H](CC(=O)O)C(N)=O (Boc-GWMD-NH2)
Activity (Rattus norvegicus [1]): 0.0001 | ED50 (Rattus norvegicus [2]): 5 mg/kg

CSCC[C@H](NC(=O)[C@H](Cc1c[nH]c2ccccc12)NC(=O)CNC(=O)[C@H](Cc1ccc(O)cc1)NC(=O)OC(C)(C)C)C(=O)N[C@@H](CC(=O)O)C(N)=O (Boc-YGWMD-NH2)
Activity (Rattus norvegicus [1]): 3.1e-05 | ED50 (Rattus norvegicus [2]): 2 mg/kg
